According to patent US9434763B2, “Derivatives of pyridinone as inhibitors for tissue transglutaminase” (ZEDIRA GMBH, priority 2012, dated 2016):

Key:
Type in all cases: biochemical
[1] = target: T1, TG1 (transglutaminase 1) (Homo sapiens, UniProt P22735); experiment: Comparative transglutaminase selectivity assay with casein and dansylcadaverine as substrates: TG1; conditions: casein as substrate
T1 construct: purchased Zedira T009
T1 sequence (P22735 1-817): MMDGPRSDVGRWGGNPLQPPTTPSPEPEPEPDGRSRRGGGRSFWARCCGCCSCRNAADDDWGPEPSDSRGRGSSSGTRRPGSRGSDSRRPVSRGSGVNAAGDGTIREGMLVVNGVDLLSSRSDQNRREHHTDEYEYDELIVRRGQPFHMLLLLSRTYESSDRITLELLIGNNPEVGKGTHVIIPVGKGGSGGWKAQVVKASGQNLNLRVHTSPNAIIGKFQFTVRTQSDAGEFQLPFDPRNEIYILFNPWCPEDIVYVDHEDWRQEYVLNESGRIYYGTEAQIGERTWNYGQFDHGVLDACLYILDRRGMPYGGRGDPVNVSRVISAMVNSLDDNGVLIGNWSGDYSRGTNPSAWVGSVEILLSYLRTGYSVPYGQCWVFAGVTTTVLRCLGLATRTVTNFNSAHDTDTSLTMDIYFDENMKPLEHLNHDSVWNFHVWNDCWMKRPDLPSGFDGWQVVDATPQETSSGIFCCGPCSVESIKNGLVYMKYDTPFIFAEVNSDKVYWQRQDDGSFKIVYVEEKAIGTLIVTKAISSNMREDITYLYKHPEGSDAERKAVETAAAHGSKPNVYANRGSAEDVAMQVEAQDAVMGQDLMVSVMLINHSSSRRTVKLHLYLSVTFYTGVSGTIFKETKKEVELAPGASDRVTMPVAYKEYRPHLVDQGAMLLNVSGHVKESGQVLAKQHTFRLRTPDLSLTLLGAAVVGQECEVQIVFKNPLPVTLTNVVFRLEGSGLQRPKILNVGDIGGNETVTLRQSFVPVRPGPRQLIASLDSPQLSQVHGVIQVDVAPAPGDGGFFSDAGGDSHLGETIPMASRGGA
Source text: (§1) The comparative determination of different transglutaminases to determine the selectivity was made with casein and dansylcadaverine as substrates. Therefore, the kit T036 (Zedira, Darmstadt; Refs: Lorand et al, Anal Biochem, 1971, 44:221-31) as well as transglutaminase products T009 (transglutaminase 1), T012 (transglutaminase 3), T021 (transglutaminase 6) and T027 (plasma transglutaminase, factor XIII) are used. Therefore, two different IC50 values for the compounds are given.
(§2) The evaluation of the resulting enzyme activity is done using the slope of the straight line obtained by the increase in fluorescence.
(§3) To determine the non-inhibited enzyme activity, DMSO instead of inhibitor stock solution is used. IC50 values are determined by plotting the resulting enzyme activity against the logarithm of the inhibitor concentration. IC50 is defined as the concentration of inhibitor resulting in 50% of enzyme activity.
(§4) It should be noted that it was measured here against casein as substrate, which is why other apparent inhibition values (IC50 value) result.

[2] = target: T2, tissue transglutaminase (TG2) (Homo sapiens, UniProt P21980); experiment: Comparative transglutaminase selectivity assay with casein and dansylcadaverine as substrates (kit T036): TG2; conditions: casein as substrate (apparent IC50)
T2 construct: purchased Zedira T036 (kit)
T2 sequence (P21980 1-687): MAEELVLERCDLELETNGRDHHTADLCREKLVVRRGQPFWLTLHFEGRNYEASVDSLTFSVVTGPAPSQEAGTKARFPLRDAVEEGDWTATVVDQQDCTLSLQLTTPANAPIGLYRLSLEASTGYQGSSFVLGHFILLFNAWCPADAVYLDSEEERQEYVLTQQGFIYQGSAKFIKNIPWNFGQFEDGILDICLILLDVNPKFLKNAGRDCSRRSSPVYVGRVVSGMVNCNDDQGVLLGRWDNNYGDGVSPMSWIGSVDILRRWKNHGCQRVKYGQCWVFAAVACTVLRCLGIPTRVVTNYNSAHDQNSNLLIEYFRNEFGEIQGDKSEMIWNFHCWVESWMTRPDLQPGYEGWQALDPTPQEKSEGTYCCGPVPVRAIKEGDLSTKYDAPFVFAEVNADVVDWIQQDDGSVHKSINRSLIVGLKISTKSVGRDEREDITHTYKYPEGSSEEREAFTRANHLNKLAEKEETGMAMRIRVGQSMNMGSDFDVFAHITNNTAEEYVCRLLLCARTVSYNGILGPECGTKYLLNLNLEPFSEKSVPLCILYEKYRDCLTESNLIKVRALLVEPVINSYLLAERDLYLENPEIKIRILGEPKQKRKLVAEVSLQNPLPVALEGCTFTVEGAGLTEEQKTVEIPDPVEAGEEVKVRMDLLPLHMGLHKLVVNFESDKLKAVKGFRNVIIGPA
Source text: as §1, §2, §3, §4

[3] = target: T3, TG6 (transglutaminase 6) (Homo sapiens, UniProt O95932); experiment: Comparative transglutaminase selectivity assay with casein and dansylcadaverine as substrates: TG6; conditions: casein as substrate
T3 construct: purchased Zedira T021
T3 sequence (O95932 1-706): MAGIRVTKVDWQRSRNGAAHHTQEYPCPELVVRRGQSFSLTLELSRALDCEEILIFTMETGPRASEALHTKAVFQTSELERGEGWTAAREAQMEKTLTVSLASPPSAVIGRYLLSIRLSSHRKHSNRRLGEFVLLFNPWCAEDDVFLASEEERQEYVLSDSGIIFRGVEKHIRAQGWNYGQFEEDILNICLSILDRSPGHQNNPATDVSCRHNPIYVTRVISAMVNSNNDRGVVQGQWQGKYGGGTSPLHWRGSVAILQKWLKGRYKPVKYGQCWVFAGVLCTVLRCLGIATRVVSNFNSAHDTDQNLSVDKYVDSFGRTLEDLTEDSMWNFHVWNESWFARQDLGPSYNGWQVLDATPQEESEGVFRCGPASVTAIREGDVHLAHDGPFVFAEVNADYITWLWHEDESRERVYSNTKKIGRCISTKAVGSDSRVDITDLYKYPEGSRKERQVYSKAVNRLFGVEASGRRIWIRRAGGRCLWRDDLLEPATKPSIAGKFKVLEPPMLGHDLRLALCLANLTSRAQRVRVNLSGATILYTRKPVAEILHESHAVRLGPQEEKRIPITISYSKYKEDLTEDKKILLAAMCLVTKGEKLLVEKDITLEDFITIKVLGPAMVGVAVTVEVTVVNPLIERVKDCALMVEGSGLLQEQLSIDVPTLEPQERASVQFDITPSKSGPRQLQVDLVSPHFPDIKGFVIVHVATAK
Source text: as §1, §2, §3, §4

Row | IC50 [1] [µM] | IC50 [2] [µM] | IC50 [3] [µM] | Compound
1 | 120 | 2.9 | 37.7 | COC(=O)/C=C/CC[C@H](NC(C)=O)C(=O)Nc1cccn(CC(=O)N2CCC(C(F)(F)F)CC2)c1=O [A65, (S,E)-Methyl 6-acetamido-7-oxo-7-(2-oxo-1-(2-oxo-2-(4-(trifluoromethyl)piperidin-1-yl)ethyl)-1,2-dihydropyridin-3-ylamino)hept-2-enoate]
2 | 80.7 | 0.397 | 47.8 | CCC(CC)CNC(=O)Cn1cccc(NC(=O)[C@H](CC/C=C/C(=O)OC)NC(C)=O)c1=O [A79, (S,E)-Methyl 6-acetamido-7-(1-(2-(2-ethylbutylamino)-2-oxoethyl)-2-oxo-1,2-dihydropyridin-3-ylamino)-7-oxohept-2-enoate]
